Data on 22 molecules can be found in PubChem BioAssay (NCI).

Where “and” joins values, the source holds several entries; their conditions need not be identical. Identical values can stand only once.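 Where inhibition never reached the appropriate level, the endpoint shown equals the highest concentration tested. Otherwise, values were interpolated linearly from a five-concentration, 48-hour dose response in 96-well plates. GI50 is the concentration that inhibits growth by half. TGI marks complete inhibition of growth.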 Bounds are passed on as bounds.

The first experiment concerns UACC-257 melanoma. As to the kind of experiment: DTP human tumour cell line panel, 48 h.
In the case of `C=CC(=O)Nc1cccc(Oc2nc(Nc3ccc(N4CCN(C)CC4)cc3)nc3ccsc23)c1`, the GI50 was 2.6 µM and 1.98 µM; the TGI is 8.59 µM and 3.83 µM.
Turning to `OCc1ccc(N2CCCC2c2ccccc2)cc1Cl` (centres undefined), the GI50 is 0.544 µM and the TGI was 2.11 µM.
In turn, `COC1C=COC2(C)Oc3c(C)c(O)c4c(c3C2=O)/C(=N/C2CCC(O)OC2C)C=C(NC(=O)/C(C)=C\C(=O)C2CC2C(O)C(C)C(O)C(C)C(OC(C)=O)C1C)C4=O` (centres undefined) had a TGI of 5.98 µM.
With `CC(=O)/C=C/c1cn(C(=O)OC(C)(C)C)c2ccc(Br)cc12`, the GI50 was > 70.3 µM and the TGI is > 100 µM.
The corresponding values for `CCOc1ccccc1C(=O)N1CCN(c2cc(Cl)cc(Cl)c2)CC1` are 4.19 µM and 25.8 µM.
As for `NC(CSC1c2ccccc2-c2ccccc21)C(=O)O` (centres undefined), the TGI is > 100 µM.
Still for that read-out and setting: to `COc1cc2c(cc1C1COc3cc4occc4cc3C1=O)OCO2` (centres undefined) belongs > 100 µM.
In the case of `Cc1cc(S(=O)(=O)/N=C(/N)Nc2ccccc2O)c(SCc2ccccc2)cc1Cl`, the GI50 was 14.6 µM and the TGI was determined as 30.4 µM.
Regarding `O=C(NC1CCCCC1)NS(=O)(=O)c1ccc2c(c1)CCC2`, the TGI was > 100 µM.
As for `O=C1CCC(N2Cc3cc(CNC(=O)C(F)(F)c4ccc(Cl)cc4)ccc3C2=O)C(=O)N1` (centres undefined), the GI50 is > 100 µM and the TGI was > 100 µM.
Consider `O=C(O)CN1CCN(CC(=O)O)CC(=O)[O][Hg][O]C(=O)C1`, for which the GI50 is 15.4 µM and the TGI was found to be 28.7 µM.
On the same counts, the results for `O=C1/C(=C/c2ccccc2[N+](=O)[O-])Cc2ccccc21` are 1.83 µM and 4.35 µM.
The corresponding values for `O=C(OCc1ccc2ccccc2n1)c1cn(C2CC2)c2cc(N3CCN(Cc4ccc5ccccc5n4)CC3)c(F)cc2c1=O` are > 94.2 µM and > 100 µM.
For the molecule `O=C(O)c1ccc(C(=O)c2ccccc2)c(C(=O)O)c1`, the TGI was > 100 µM.
Turning to `Cc1ccc(/C=N\NC(=O)c2[nH]c3ccc(F)cc3c2-c2ccccc2)cc1`, the GI50 is 0.493 µM and the TGI was > 100 µM.

For another experiment, the system named is DMS 273 small cell lung. As to the kind of experiment: DTP human tumour cell line panel, 48 h.
On to `CCC(=O)C12OC3OC(C)(C)OC3C1OC(C)(C)O2` (centres undefined), for which the TGI was > 100 µM.
Same read-out and setting: next, `COc1cc(C(=O)C/C(CCC(=O)Nc2ccccc2[N+](=O)[O-])=N\NC(N)=O)ccc1O`: > 100 µM; `COc1ccc(-c2cc(Cc3cccs3)c(=O)[nH]n2)cc1`: > 100 µM; `COC(=O)C1(C)CCc2c(OC)ccc(OC)c2C1=O` (centres undefined): > 100 µM.
For the molecule `COC(=O)C1CC2CC(=NNC(N)=O)CC2C1` (centres undefined), the TGI is > 100 µM.

Another experiment deals with MCF7 breast. As to the kind of experiment: DTP human tumour cell line panel, 48 h.
In the case of `O=C1NC(=O)C(N2C(=O)c3ccccc3C2=O)CC1O` (centres undefined), the GI50 is > 100 µM and the TGI is > 100 µM.
Consider `COc1ccc2c(c1)N(CCO)C1=C(C(=O)OC1)C2c1cccc(F)c1` (centres undefined), for which the GI50 was 0.202 µM and the TGI was > 50 µM.
Take `C=CC(=O)Nc1cccc(Oc2nc(Nc3ccc(N4CCN(C)CC4)cc3)nc3ccsc23)c1`: the GI50 is 2.22 µM and 1.72 µM; the TGI is 8.96 µM and 4.48 µM.
For the molecule `OCc1ccc(N2CCCC2c2ccccc2)cc1Cl` (centres undefined), the GI50 is 1.42 µM and the TGI was found to be 13.2 µM.
`COC1C=COC2(C)Oc3c(C)c(O)c4c(c3C2=O)/C(=N/C2CCC(O)OC2C)C=C(NC(=O)/C(C)=C\C(=O)C2CC2C(O)C(C)C(O)C(C)C(OC(C)=O)C1C)C4=O` (centres undefined): the TGI came to 4.74 µM. This counts as single-digit micromolar.
As to `CC(=O)/C=C/c1cn(C(=O)OC(C)(C)C)c2ccc(Br)cc12`, the GI50 is 9.71 µM and the TGI worked out at 46.5 µM.
On the same counts, the results for `CCOc1ccccc1C(=O)N1CCN(c2cc(Cl)cc(Cl)c2)CC1` are 0.0321 µM and 12.2 µM.
On to `NC(CSC1c2ccccc2-c2ccccc21)C(=O)O` (centres undefined), for which the TGI is > 100 µM.
The same measure, in the same setting: next, `COc1cc2c(cc1C1COc3cc4occc4cc3C1=O)OCO2` (centres undefined): > 100 µM.
For `Cc1cc(S(=O)(=O)/N=C(/N)Nc2ccccc2O)c(SCc2ccccc2)cc1Cl`, the GI50 was 15.9 µM and the TGI was found to be 55.7 µM.
On the same counts, the results for `O=C1CCC(N2Cc3cc(CNC(=O)C(F)(F)c4ccc(Cl)cc4)ccc3C2=O)C(=O)N1` (centres undefined) are > 100 µM and > 100 µM.
The corresponding values for `O=C(O)CN1CCN(CC(=O)O)CC(=O)[O][Hg][O]C(=O)C1` are 20.3 µM and 45.1 µM.
The corresponding values for `O=C1/C(=C/c2ccccc2[N+](=O)[O-])Cc2ccccc21` are 1.38 µM and 11.8 µM.
Turning to `O=C(OCc1ccc2ccccc2n1)c1cn(C2CC2)c2cc(N3CCN(Cc4ccc5ccccc5n4)CC3)c(F)cc2c1=O`, the GI50 is 35 µM and the TGI is > 92.7 µM.
In the case of `O=C(O)c1ccc(C(=O)c2ccccc2)c(C(=O)O)c1`, the TGI is > 100 µM.
For the molecule `Cc1ccc(/C=N\NC(=O)c2[nH]c3ccc(F)cc3c2-c2ccccc2)cc1`, the GI50 is 0.0299 µM and the TGI is > 100 µM.

The next experiment has as its system TK-10 renal. As to the kind of experiment: DTP human tumour cell line panel, 48 h.
As for `CCC(=O)C12OC3OC(C)(C)OC3C1OC(C)(C)O2` (centres undefined), the TGI was > 100 µM.
The same measure, in the same setting: next, `COc1cc(C(=O)C/C(CCC(=O)Nc2ccccc2[N+](=O)[O-])=N\NC(N)=O)ccc1O`: > 100 µM; `COc1ccc(-c2cc(Cc3cccs3)c(=O)[nH]n2)cc1`: > 100 µM.
Turning to `O=C1NC(=O)C(N2C(=O)c3ccccc3C2=O)CC1O` (centres undefined), the GI50 is > 100 µM and the TGI was > 100 µM.
Consider `COC(=O)C1(C)CCc2c(OC)ccc(OC)c2C1=O` (centres undefined), for which the TGI is > 100 µM.
Still for that read-out and setting: to `COC(=O)C1CC2CC(=NNC(N)=O)CC2C1` (centres undefined) belongs > 100 µM.
Take `COc1ccc2c(c1)N(CCO)C1=C(C(=O)OC1)C2c1cccc(F)c1` (centres undefined): the GI50 was 10.3 µM and the TGI was > 50 µM.
As for `C=CC(=O)Nc1cccc(Oc2nc(Nc3ccc(N4CCN(C)CC4)cc3)nc3ccsc23)c1`, the GI50 is 0.398 µM and 0.6 µM; the TGI was 2.56 µM and 4.04 µM.
